molecular target: T1, Human PIP4K2C (Homo sapiens, UniProt Q8TBX8); test: Enzyme binding assay (KINOMEscan), active site-directed competition binding; conditions: 11-point dose response, duplicate, top concentration 5 micromolar; read-out: Pip4k2c Kd: IC50
T1 construct: purchased Eurofins DiscoverX 87-0007-1094
T1 sequence (Q8TBX8 1-421): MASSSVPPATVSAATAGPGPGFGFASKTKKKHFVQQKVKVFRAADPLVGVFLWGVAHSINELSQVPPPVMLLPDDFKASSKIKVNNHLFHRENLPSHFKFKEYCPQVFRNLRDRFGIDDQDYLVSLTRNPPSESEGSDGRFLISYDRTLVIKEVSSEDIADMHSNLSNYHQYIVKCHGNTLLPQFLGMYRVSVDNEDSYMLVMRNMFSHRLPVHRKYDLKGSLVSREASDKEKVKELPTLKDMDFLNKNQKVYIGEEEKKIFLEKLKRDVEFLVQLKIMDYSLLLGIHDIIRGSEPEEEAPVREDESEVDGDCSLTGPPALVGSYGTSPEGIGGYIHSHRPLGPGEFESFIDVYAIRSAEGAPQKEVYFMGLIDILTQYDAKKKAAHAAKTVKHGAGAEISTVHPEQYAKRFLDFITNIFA
Method: PIP4K2C binding constants disclosed herein were determined using the proprietary Human PIP4K2C binding assay (Catalog number 87-0007-1094, Eurofins DiscoverX, San Diego, CA). This assay measures active site-directed competition binding to an immobilized ligand (see https://doi.org/10.1038/nbt1068, herein incorporated by reference in its entirety). Experiments were conducted using an 11-point dose response curve, in duplicate, with a top starting concentration of 5 micromolar; the Levenberg-Marquardt algorithm was used to fit a Hill equation to dose-response data to calculate IC50 values (see Table 5).

Structure (SMILES) | IC50
O=C1CCCN1c1cncc(Nc2ncc(Cl)c(N3CCOC(c4ccccc4)C3)n2)c1 (centres unmarked) [Compound 41, 1-[5-[[5-chloro-4-(2-phenylmorpholin-4-yl)pyrimidin-2-yl]amino]-3-pyridyl]pyrrolidin-2-one] | < 500 nM
O=C1CCCN1c1cncc(Nc2ncc(Cl)c(-c3cccc(C4CCC4)c3)n2)c1 [Compound 39, 1-(5-((5-chloro-4-(3-cyclobutylphenyl)pyrimidin-2-yl)amino)pyridin-3-yl)pyrrolidin-2-one] | < 500 nM
O=C1CCCN1c1cncc(Nc2ncc(Cl)c(N3CCCC(O)C3)n2)c1 (centres unmarked) [Compound 99] | < 500 nM
O=C(c1ccc(=O)[nH]c1)N1CCCC(c2nc(Nc3cncc(N4CCCC4=O)c3)ncc2Cl)C1 (centres unmarked) [Compound 163, 5-[3-[5-chloro-2-[[5-(2-oxopyrrolidin-1-yl)-3-pyridyl]amino]pyrimidin-4-yl]piperidine-1-carbonyl]-1H-pyridin-2-one] | < 500 nM
COc1ccc(-c2ccccc2)cc1-c1nc(Nc2cncc(N3CCCC3=O)c2)ncc1Cl [Compound 21, 1-(5-((5-chloro-4-(4-methoxy-[1,1′-biphenyl]-3-yl)pyrimidin-2-yl)amino)pyridin-3-yl)pyrrolidin-2-one] | < 500 nM
CC(=O)N1CCC(n2cc(-c3nc(Nc4cncc(N5CCCC5=O)c4)ncc3Cl)cn2)CC1 [Compound 48, 1-(5-((4-(1-(1-acetylpiperidin-4-yl)-1H-pyrazol-4-yl)-5-chloropyrimidin-2-yl)amino)pyridin-3-yl)pyrrolidin-2-one] | < 500 nM
O=C1CCCN1c1cncc(Nc2ncc(Cl)c(-c3cnn(-c4ccccc4)c3)n2)c1 [Compound 140, 1-(5-((5-chloro-4-(1-phenyl-1H-pyrazol-4-yl)pyrimidin-2-yl)amino)pyridin-3-yl)pyrrolidin-2-one] | < 500 nM
O=C1CCCN1c1cncc(Nc2ncc(Cl)c(N3CCC[C@H](c4ccccc4)C3)n2)c1 [Compound 44, (R)-1-(5-((5-chloro-4-(3-phenylpiperidin-1-yl)pyrimidin-2-yl)amino)pyridin-3yl)pyrrolidin-2-one] | < 500 nM
O=C1CCCN1c1cncc(Nc2ncc(Cl)c(-c3ccc(F)cc3F)n2)c1 [Compound 108, 1-(5-((5-chloro-4-(2,4-difluorophenyl)pyrimidin-2-yl)amino)pyridin-3-yl)pyrrolidin-2-one] | < 500 nM
CC(C)c1cccc(-c2nc(Nc3cncc(N4CCCC4=O)c3)ncc2Cl)c1 [Compound 98, 1-(5-((5-chloro-4-(3-isopropylphenyl)pyrimidin-2-yl)amino)pyridin-3-yl)pyrrolidin-2-one] | < 500 nM
CC(=O)N1CCC2(CC1)CCN(c1cncc(Nc3ncc(Cl)c(-c4cccc(-c5ccccc5)c4)n3)c1)C2=O [Compound 133, 8-acetyl-2-[5-[[5-chloro-4-(3-phenylphenyl)pyrimidin-2-yl]amino]-3-pyridyl]-2,8-diazaspiro[4.5]decan-1-one] | < 500 nM
O=C1CCCN1c1cncc(Nc2ncc(Cl)c(-c3cnn(C4CCCC4)c3)n2)c1 [Compound 138, 1-[5-[[5-chloro-4-(1-cyclopentylpyrazol-4-yl)pyrimidin-2-yl]amino]-3-pyridyl]pyrrolidin-2-one] | < 500 nM
O=C1CCCN1c1cncc(Nc2ncc(Cl)c(N3CCC(c4ccccn4)C3)n2)c1 (centres unmarked) [Compound 120, 1-(5-((5-chloro-4-(3-(pyridin-2-yl)pyrrolidin-1-yl)pyrimidin-2-yl)amino)pyridin-3-yl)pyrrolidin-2-one] | < 500 nM
O=C1CCCN1c1cncc(Nc2ncc(Cl)c(N3CCCC(C(F)(F)F)C3)n2)c1 (centres unmarked) [Compound 101, 1-(5-((5-chloro-4-(3-(trifluoromethyl)piperidin-1-yl)pyrimidin-2-yl)amino)pyridin-3-yl)pyrrolidin-2-one] | < 500 nM
O=C(c1ccc[nH]c1=O)N1CCCC(c2nc(Nc3cncc(N4CCCC4=O)c3)ncc2Cl)C1 (centres unmarked) [Compound 165, 3-(3-(5-chloro-2-((5-(2-oxopyrrolidin-1-yl)pyridin-3-yl)amino)pyrimidin-4-yl)piperidine-1-carbonyl)pyridin-2(1H)-one] | < 500 nM
O=C1CCCN1c1cncc(Nc2ncc(F)c(-c3cnn(C4COC4)c3)n2)c1 [Compound 148, 1-(5-((5-fluoro-4-(1-(oxetan-3-yl)-1H-pyrazol-4-yl)pyrimidin-2-yl)amino)pyridin-3-yl)pyrrolidin-2-one] | < 500 nM
O=C1CCCN1c1cncc(Nc2cc(-c3ccc(F)cc3)c(Cl)cn2)c1 [Compound 103, 1-(5-((5-chloro-4-(4-fluorophenyl)pyridin-2-yl)amino)pyridin-3-yl)pyrrolidin-2-one] | < 500 nM
Cc1ccc(-c2nc(Nc3cncc(N4CCCC4=O)c3)ncc2Cl)cc1 [Compound 94, 1-(5-((5-chloro-4-(p-tolyl)pyrimidin-2-yl)amino)pyridin-3-yl)pyrrolidin-2-one] | < 500 nM

Structure (SMILES) | IC50
O=C1CCCN1c1cncc(Nc2ncc(Cl)c(N3C(=O)CC[C@@H]3c3ccccc3)n2)c1 [29, Enant B] | 500 to 1000 nM
O=C(c1ccc(F)cc1)N1CCC(c2nc(Nc3cncc(N4CCCC4=O)c3)ncc2Cl)C1 (centres unmarked) [Compound 159, 1-(5-((5-chloro-4-(1-(4-fluorobenzoyl)pyrrolidin-3-yl)pyrimidin-2-yl)amino)pyridin-3-yl)pyrrolidin-2-one] | < 500 nM
Cc1ccccc1-c1nc(Nc2cncc(N3CCCC3=O)c2)ncc1Cl [Compound 116, 1-(5-((5-chloro-4-(o-tolyl)pyrimidin-2-yl)amino)pyridin-3-yl)pyrrolidin-2-one] | < 500 nM
O=C1CCCN1c1cncc(Nc2ncc(Cl)c(-c3cc(-c4ccccc4)ccc3Cl)n2)c1 [Compound 20, 1-(5-((5-chloro-4-(4-chloro-[1,1′-biphenyl]-3-yl)pyrimidin-2-yl)amino)pyridin-3-yl)pyrrolidin-2-one] | < 500 nM
Cc1cc(-c2ccccc2)cc(-c2nc(Nc3cncc(N4CCCC4=O)c3)ncc2Cl)c1 [Compound 11, 1-(5-((5-chloro-4-(5-methyl-[1,1′-biphenyl]-3-yl)pyrimidin-2-yl)amino)pyridin-3-yl)pyrrolidin-2-one] | < 500 nM
O=C1CCCN1c1cncc(Nc2ncc(Cl)c(-c3ccc(Cl)c(-c4ccccc4)c3)n2)c1 [Compound 6, 1-(5-((5-chloro-4-(6-chloro-[1,1′-biphenyl]-3-yl)pyrimidin-2-yl)amino)pyridin-3-yl)pyrrolidin-2-one] | < 500 nM
COc1cc(-c2ccccc2)cc(-c2nc(Nc3cncc(N4CCCC4=O)c3)ncc2Cl)c1 [Compound 18, 1-(5-((5-chloro-4-(5-methoxy-[1,1′-biphenyl]-3-yl)pyrimidin-2-yl)amino)pyridin-3-yl)pyrrolidin-2-one] | < 500 nM
CN1CC2(CC(=O)N(c3cncc(Nc4ncc(Cl)c(-c5cccc(-c6ccccc6)c5)n4)c3)C2)C1 [Compound 35, 6-(5-((4-([1,1′-biphenyl]-3-yl)-5-chloropyrimidin-2-yl)amino)pyridin-3-yl)-2-methyl-2,6-diazaspiro[3.4]octan-7-one] | < 500 nM
O=C1CCCN1c1cncc(Nc2ncc(Cl)c(C3CCCCC3)n2)c1 [Compound 97, 1-(5-((5-chloro-4-cyclohexylpyrimidin-2-yl)amino)pyridin-3-yl)pyrrolidin-2-one] | < 500 nM
O=C1CCCN1c1cncc(Nc2ncc(Cl)c(N3CCC[C@@H](c4ccccn4)C3)n2)c1 (single isomer, unassigned) [Compound 124] | < 500 nM
CC(=O)N1CCC(c2nc(Nc3cncc(N4CCCC4=O)c3)ncc2Cl)CC1 [Compound 152, 1-(5-((4-(1-acetylpiperidin-4-yl)-5-chloropyrimidin-2-yl)amino)pyridin-3-yl)pyrrolidin-2-one] | < 500 nM
O=C1CCCN1c1cncc(Nc2ncc(Cl)c(C3CCCN(C4CCC4)C3)n2)c1 (centres unmarked) [Compound 145, 1-(5-((5-chloro-4-(1-cyclobutylpiperidin-3-yl)pyrimidin-2-yl)amino)pyridin-3-yl)pyrrolidin-2-one] | < 500 nM
O=C1CCCN1c1cncc(Nc2ncc(Cl)c(-c3cc(-c4ccccc4)[nH]n3)n2)c1 [Compound 49, 1-(5-((5-chloro-4-(5-phenyl-1H-pyrazol-3-yl)pyrimidin-2-yl)amino)pyridin-3-yl)pyrrolidin-2-one] | < 500 nM
Cc1ccccc1-c1cccc(-c2nc(Nc3cncc(N4CCCC4=O)c3)ncc2Cl)c1 [Compound 15, 1-(5-((5-chloro-4-(2′-methyl-[1,1′-biphenyl]-3-yl)pyrimidin-2-yl)amino)pyridin-3-yl)pyrrolidin-2-one] | < 500 nM
O=C(C1CCCC1)N1CCC(c2nc(Nc3cncc(N4CCCC4=O)c3)ncc2Cl)CC1 [Compound 153, 1-(5-((5-chloro-4-(1-(cyclopentanecarbonyl)piperidin-4-yl)pyrimidin-2-yl)amino)pyridin-3-yl)pyrrolidin-2-one] | < 500 nM
O=C1CCCN1c1cncc(Nc2ncc(Cl)c(N3CCCc4ccccc43)n2)c1 [Compound 127, 1-(5-((5-chloro-4-(3,4-dihydroquinolin-1(2H)-yl)pyrimidin-2-yl)amino)pyridin-3-yl)pyrrolidin-2-one] | < 500 nM
O=C1CCCN1c1cncc(Nc2ncc(Cl)c(-c3cccc(Oc4ccccc4)c3)n2)c1 [Compound 142, 1-(5-((5-chloro-4-(3-phenoxyphenyl)pyrimidin-2-yl)amino)pyridin-3-yl)pyrrolidin-2-one] | < 500 nM

Reference: patent US20260184691A1, “INHIBITORS AND DEGRADERS OF PIP4K PROTEIN” (Larkspur Biosciences, Inc., priority 2022, published 2026)
